# Like-named read-outs stand apart in the source and are kept apart here. Marks after values point to notes of the source that are not given here.
# Key:
# [1] = Topotecan lactone species in plasma; format: in vivo, mice; settings: after only 5 minutes
# [2] = humans, daily for 5 consecutive days (d×5); cited from earlier work
# L1210 murine leukemia = assay: Intravenous L1210 murine leukemia model; settings: for % ILS (increase in lifespan) / DRD (drug related deaths) / MWL (maximum mean weight loss) / TF (tumor free animals at end of study): L1210 i.v.
# Experimental: FIG. 3. […] L1210 cells (10^5 cells in 200 μl) were injected i.v. into the tail vein of BDF-1 mice on day 0. […] Each group consisted of 8 animals. Data is from NCTEF-005.
# (§1) In the above formula, MTD is the maximum tolerated dose, defined as that dose that causes a mean weight loss of 20% in a group of animals; and MED is the minimal effective dose, defined as the dose that produces an optimal % T/C value of ≦40 in the solid tumor models or an % ILS of 50±10% in the survival models.
# [3] = test system: LX-1 human SCLC xenografts; assay: Subcutaneous LX-1 human SCLC xenografts; settings: for % ILS (increase in lifespan) / DRD (drug related deaths) / LCK (log cell kill, gross) / MWL (maximum mean weight loss): LX-1 s.c.
# Text: Topotecan was encapsulated in SM:CH (55:45) vesicles at a drug-to-lipid ratio of 0.10 (w/w) using the Mg-A23187 method as described in Experimental. All dilutions were made in sterile 0.9% saline immediately prior to injection. Drug administration was made via the lateral tail vein at 10 days post-tumor cell implantation when the tumors were 100-300 mm^3. Data points represent mean±SEM (n=6).
# Topotecan was encapsulated in SM:CH (55:45) vesicles at a drug-to-lipid ratio of 0.10 (w/w) using the Mg-A23187 method as described in Experimental. All dilutions were made in sterile 0.9% saline immediately prior to injection. Drug administration was made via the lateral tail vein on day 14, 21 and 28 post-tumor cell implantation. Data points represent mean±SEM (n=6).
# Tumor Models. […] Human MX-1 and LX-1 cell lines were obtained from the DCTD Tumor Repository in Frederick, Md. These cell lines were received as tumor fragments and were propagated in NCr nude mice by serial transplantation of 3×3 mm fragments. Experiments were not initiated until the cell lines had been through 3 passages in nude mice and the tumor lines were restarted when the passage number reached 10.
# Efficacy Studies. […] For the MX-1 and LX-1 tumor models, tumor volume was determined by repeated perpendicular measurements of tumor dimensions and using the formula:
# [4] = test system: MX-1 human breast xenografts; assay: Subcutaneous MX-1 human breast xenografts
# Text: FIG. 5. […] Data is from NCTEF-004.
# FIG. 7. […] Data is from NCTEF-006.
# FIG. 8. […] Data is from NCTEF-009.
# Serum chemistry panel = format: in vivo, ICR mice; settings: 10 mg/kg i.v., day 3 post-injection
# Experimental: (§2) Myelosuppression and neutropenia studies. […] Empty vesicles were administered as a control. CBC and differential analysis was performed at Central Labs for Veterinarians (Langley, BC) to quantify cellular levels, ratios and morphology.
# [5] = MTD of free topotecan in humans; settings: 1.5 vs 14 mg/M^2
# [6] = MTD studies (weight loss over time); settings: if the drug was infused over 5-10 minutes
# Experimental: MTD studies. MTD studies were performed in the host mouse strain corresponding to each tumor model. Single dose and multidose MID were determined by monitoring weight loss over time.
# [7] = Myelosuppression and neutropenia studies (blood CBC and differential); format: in vivo, ICR mice; settings: 10 mg/kg i.v.
# Experimental: as §2
# [8] = Pharmacokinetic and in vivo leakage studies; parameters: species or system ICR mice; settings: plasma, i.v.
# Experimental: 5. Pharmacokinetic and in vivo leakage studies. […] Two different drug-to-lipid ratios, i.e., 0.10 (w/w) and 0.02 (w/w), were used to examine the influence of drug-to-lipid ratio and lipid dose on drug leakage and PK behavior. Encapsulated topotecan was administered at 1 mg/kg (10 or 50 mg/kg lipid) and 5 mg/kg topotecan (50 mg/kg lipid). […] Total topotecan in blood was determined by a fluorescence assay preceded by precipitation of plasma proteins. Topotecan was quantified by spectrofluorimetry at an excitation (2.5 nm slit width) and emission wavelength (2.5 nm slit width) of 380 and 518 nm, respectively. Lipid levels in plasma were determined by liquid scintillation counting of the [^3H]-CHE label.
# All parameters were derived from one or two-compartment models using WINNONLIN PK modeling software.
# [9] = test system: CT-26 murine colon metastases; assay: Intrasplenic CT-26 murine colon metastases model; settings: for % ILS (increase in lifespan) / DRD (drug related deaths) / MWL (maximum mean weight loss) / TF (tumor free animals at end of study): CT-26 i.s.
# Experimental: FIG. 4. […] CT-26 cells (10^4 cells in 50 μl) were injected into the spleen of Balb/c mice on day 0. […] Each group consisted of 8 animals. Data is from NCTEF-002.
# as §1
# [10] = cited from earlier work
# [11] = L1210, single i.v. dose, highest dose of free topotecan
# [12] = q7dx3, NCTEF-007, 10 mg/kg/dose i.v.
# [13] = q7dx3, NCTEF-007, 30 mg/kg/dose i.v.
# [14] = q7dx3, NCTEF-011, 10 mg/kg/dose i.v.
# [15] = q7dx3, NCTEF-011, 30 mg/kg/dose i.v.
# [16] = MX-1 s.c., q3dx4, 1.25 mg/kg/dose i.v.
# [17] = MX-1 s.c., q3dx4, 10 mg/kg/dose i.v.
# [18] = MX-1 s.c., q7dx3, 5 mg/kg/dose i.v.
# [19] = MX-1 s.c., q7dx3, 10 mg/kg/dose i.v.
# [20] = MX-1 s.c., single dose 5, 10 and 40 mg/kg
# [21] = MX-1 s.c., single i.v. dose 5 mg/kg
# [22] = MX-1 s.c., single i.v. dose 10 mg/kg
# [23] = MX-1 s.c., single i.v. dose 40 mg/kg
# [24] = day 3 post-injection (first line of treatment)
# [25] = day 21 post-injection (second line of treatment)
smiles,measurement,setting,value
"CC[C@@]1(O)C(=O)OCc2c1cc1n(c2=O)Cc2cc3c(CN(C)C)c(O)ccc3nc2-1 [Free, 9-dimethylaminomethyl-10-hydroxy-camptothecin]",topotecan present in plasma as the lactone species,[1],48%
same,MTD,[2],1.5 mg/M^2/dose
same,long-term survivors (day 60),L1210 murine leukemia; [11],one long-term survivor
same,median survival,L1210 murine leukemia; [11],13 days
same,% ILS (increase in lifespan),L1210 murine leukemia; single i.v. dose 5 mg/kg,11%
same,DRD (drug related deaths),L1210 murine leukemia; single i.v. dose 5 mg/kg,0/8
same,MWL (maximum mean weight loss),L1210 murine leukemia; single i.v. dose 5 mg/kg,+
same,TF (tumor free animals at end of study),L1210 murine leukemia; single i.v. dose 5 mg/kg,0/8
same,% ILS (increase in lifespan),L1210 murine leukemia; single i.v. dose 10 mg/kg,22%
same,DRD (drug related deaths),L1210 murine leukemia; single i.v. dose 10 mg/kg,0/8
same,MWL (maximum mean weight loss),L1210 murine leukemia; single i.v. dose 10 mg/kg,+
same,TF (tumor free animals at end of study),L1210 murine leukemia; single i.v. dose 10 mg/kg,0/8
same,% ILS (increase in lifespan),L1210 murine leukemia; single i.v. dose 20 mg/kg,33%
same,DRD (drug related deaths),L1210 murine leukemia; single i.v. dose 20 mg/kg,0/8
same,MWL (maximum mean weight loss),L1210 murine leukemia; single i.v. dose 20 mg/kg,+
same,TF (tumor free animals at end of study),L1210 murine leukemia; single i.v. dose 20 mg/kg,0/8
same,DRD (drug related deaths),L1210 murine leukemia; single i.v. dose 30 mg/kg,0/8
same,MWL (maximum mean weight loss),L1210 murine leukemia; single i.v. dose 30 mg/kg,+
same,TF (tumor free animals at end of study),L1210 murine leukemia; single i.v. dose 30 mg/kg,0/8
same,DRD (drug related deaths),L1210 murine leukemia; single i.v. dose 40 mg/kg,0/8
same,MWL (maximum mean weight loss),L1210 murine leukemia; single i.v. dose 40 mg/kg,+
same,TF (tumor free animals at end of study),L1210 murine leukemia; single i.v. dose 40 mg/kg,0/8
same,anti-tumor activity (in words),"[3]; LX-1, initial single dose studies",inactive at evaluated doses<30 mg/kg
same,% ILS (increase in lifespan),[3]; [12],21%
same,DRD (drug related deaths),[3]; [12],0/6
same,"LCK (log cell kill, gross)",[3]; [12],0.14
same,MWL (maximum mean weight loss),[3]; [12],−6.2%
same,DRD (drug related deaths),[3]; [13],0/6
same,"LCK (log cell kill, gross)",[3]; [13],1.53
same,MWL (maximum mean weight loss),[3]; [13],−8.8%
same,DRD (drug related deaths),[3]; [14],0/6
same,MWL (maximum mean weight loss),[3]; [14],−3.6%
same,DRD (drug related deaths),[3]; [15],2/6
same,MWL (maximum mean weight loss),[3]; [15],−16.4%
same,% ILS (increase in lifespan),[3]; single i.v. dose 5 mg/kg,0%
same,DRD (drug related deaths),[3]; single i.v. dose 5 mg/kg,0/6
same,"LCK (log cell kill, gross)",[3]; single i.v. dose 5 mg/kg,0.13
same,MWL (maximum mean weight loss),[3]; single i.v. dose 5 mg/kg,+
same,% ILS (increase in lifespan),[3]; single i.v. dose 10 mg/kg,0%
same,DRD (drug related deaths),[3]; single i.v. dose 10 mg/kg,0/6
same,"LCK (log cell kill, gross)",[3]; single i.v. dose 10 mg/kg,0.18
same,MWL (maximum mean weight loss),[3]; single i.v. dose 10 mg/kg,+
same,% ILS (increase in lifespan),[3]; single i.v. dose 30 mg/kg,7%
same,DRD (drug related deaths),[3]; single i.v. dose 30 mg/kg,0/6
same,"LCK (log cell kill, gross)",[3]; single i.v. dose 30 mg/kg,0.27
same,MWL (maximum mean weight loss),[3]; single i.v. dose 30 mg/kg,−1.3%
same,anti-tumor activity (in words),"[4]; MX-1, q7d×3, 5 or 10 mg/kg/dose",little activity was observed
same,% ILS (increase in lifespan),[4]; [16],20%
same,DRD (drug related deaths),[4]; [16],0/6
same,"LCK (log cell kill, gross)",[4]; [16],0.17
same,MWL (maximum mean weight loss),[4]; [16],+^h
same,TF (tumor free animals at end of study),[4]; [16],0/6
same,DRD (drug related deaths),[4]; [17],0/6
same,"LCK (log cell kill, gross)",[4]; [17],0.21
same,MWL (maximum mean weight loss),[4]; [17],+
same,TF (tumor free animals at end of study),[4]; [17],1/6
same,DRD (drug related deaths),[4]; [18],0/6
same,"LCK (log cell kill, gross)",[4]; [18],0.15
same,MWL (maximum mean weight loss),[4]; [18],+
same,TF (tumor free animals at end of study),[4]; [18],0/6
same,% T/C (optimal),[4]; [19],61%
same,DRD (drug related deaths),[4]; [19],0/6
same,MWL (maximum mean weight loss),[4]; [19],−0.8%
same,TF (tumor free animals at end of study),[4]; [19],0/6
same,body weight,[4]; [20],all animals gained weight
same,drug-related deaths,[4]; [20],No drug-related deaths were observed
same,% ILS (increase in lifespan),[4]; [21],0%
same,% T/C (optimal),[4]; [21],78%
same,DRD (drug related deaths),[4]; [21],0/6
same,"LCK (log cell kill, gross)",[4]; [21],0.02
same,MWL (maximum mean weight loss),[4]; [21],+
same,T − C (tumor growth delay),[4]; [21],0.2 days
same,TF (tumor free animals at end of study),[4]; [21],0/6
same,% ILS (increase in lifespan),[4]; [22],13%
same,DRD (drug related deaths),[4]; [22],0/6
same,"LCK (log cell kill, gross)",[4]; [22],0.12
same,MWL (maximum mean weight loss),[4]; [22],+
same,TF (tumor free animals at end of study),[4]; [22],0/6
same,% ILS (increase in lifespan),[4]; [23],35%
same,% T/C (optimal),[4]; [23],24%
same,DRD (drug related deaths),[4]; [23],0/6
same,"LCK (log cell kill, gross)",[4]; [23],0.35
same,MWL (maximum mean weight loss),[4]; [23],+
same,TF (tumor free animals at end of study),[4]; [23],0/6
same,ALT,Serum chemistry panel,13 ± 23 IU/L
same,Albumin,Serum chemistry panel,32.8 ± 1.3 g/L
same,BUN,Serum chemistry panel,9.4 ± 3.2 mmol/L
same,Bilirubin,Serum chemistry panel,3.8 ± 0.8 µmol/L
same,CPK,Serum chemistry panel,56 ± 38 IU/L
same,Creatinine,Serum chemistry panel,82 ± 18 µmol/L
same,Globulin,Serum chemistry panel,15.2 ± 1.1 g/L
same,TP,Serum chemistry panel,48.0 ± 2.1 g/L
same,human tolerated dose as share of the MTD in mice,[5],11%
same,"true MTD (based on weight loss), estimated",[6],~60 mg/kg
same,Baso,[7]; day 3 post-injection,0.057 ± 0.040 ×10^9/L
same,Eosino,[7]; day 3 post-injection,0.031 ± 0.021 ×10^9/L
same,Lympho,[7]; day 3 post-injection,5.90 ± 1.70 ×10^9/L
same,Mono,[7]; day 3 post-injection,0.177 ± 0.072 ×10^9/L
same,Neutro,[7]; day 3 post-injection,0.520 ± 0.200 ×10^9/L
same,WBC,[7]; day 3 post-injection,6.70 ± 1.95 ×10^9/L
same,Hb,[7]; [24],136 ± 05 g/L
same,Hc,[7]; [24],0.444 ± 0.012 L/L
same,PLT,[7]; [24],879 ± 145 ×10^9/L
same,RBC,[7]; [24],8.47 ± 0.39 ×10^12/L
same,Baso,[7]; day 21 post-injection,0.088 ± 0.071 ×10^9/L
same,Eosino,[7]; day 21 post-injection,0.034 ± .016 ×10^9/L
same,Lympho,[7]; day 21 post-injection,4.33 ± 0.93 ×10^9/L
same,Mono,[7]; day 21 post-injection,0.247 ± 0.180 ×10^9/L
same,Neutro,[7]; day 21 post-injection,0.480 ± 0.122 ×10^9/L
same,WBC,[7]; day 21 post-injection,5.16 ± 1.18 ×10^9/L
same,Hb,[7]; [25],154 ± 04 g/L
same,Hc,[7]; [25],0.493 ± 0.014 L/L
same,PLT,[7]; [25],907 ± 059 ×10^9/L
same,RBC,[7]; [25],9.81 ± 0.37 ×10^12/L
same,α1/2,[8]; 1 mg/kg,0.14 h
same,β1/2,[8]; 1 mg/kg,11.8 h
same,α1/2,[8]; 5 mg/kg,0.26 h
same,β1/2,[8]; 5 mg/kg,11.4 h
same,% ILS,"[9]; CT-26, single dose, over the dose range 5-40 mg/kg",23-60%
same,% ILS (increase in lifespan),[9]; single i.v. dose 5 mg/kg,31%
same,DRD (drug related deaths),[9]; single i.v. dose 5 mg/kg,0/8
same,MWL (maximum mean weight loss),[9]; single i.v. dose 5 mg/kg,+
same,TF (tumor free animals at end of study),[9]; single i.v. dose 5 mg/kg,0/8
same,% ILS (increase in lifespan),[9]; single i.v. dose 10 mg/kg,23%
same,DRD (drug related deaths),[9]; single i.v. dose 10 mg/kg,0/8
same,MWL (maximum mean weight loss),[9]; single i.v. dose 10 mg/kg,+
same,TF (tumor free animals at end of study),[9]; single i.v. dose 10 mg/kg,0/8
same,DRD (drug related deaths),[9]; single i.v. dose 40 mg/kg,0/8
same,MWL (maximum mean weight loss),[9]; single i.v. dose 40 mg/kg,−0.4%
same,TF (tumor free animals at end of study),[9]; single i.v. dose 40 mg/kg,1/8
same,LD10,"[10]; mouse, in vivo",14 mg/M2/dose
same,LD10,"[10]; qd×5 schedule, Grochow et al.",~4.7 mg/kg/dose

# Source: patent US20110086826A1, “LIPOSOMAL CAMPTOTHECINS AND USES THEREOF” (TEKMIRA PHARMACEUTICALS CORPORATION, priority 2000, published 2011)
